In brackets after ≈: the same amount, converted by molar mass. Counter-ions that a name gives are not always drawn.
Tests used:
[1] = In-vitro release from FocalSeal-L gel disks, flow-through dissolution tank; assay type: physicochemical; conditions: FocalSeal-L with 1% dexamethasone and 1% amiodarone HCl; 2 mm gel disc
Text: Method: […] The gel disks were then placed in a flow-through dissolution tank and gels were sampled over time. Residual drug was extracted from the gel disks with methanol and drug was quantitated by HPLC.

[2] = Modulus and pH of FOCALSEAL-L as a function of drug loading; conditions: loaded into the FOCALSEAL-L formulation
[3] = cited from earlier work

Compound | time over which amiodarone HCl is released in-vitro [1] | loading level that maintains acceptable pH and modulus values [2] | aqueous solubility [3]
CCCCc1oc2ccccc2c1C(=O)c1cc(I)c(OCCN(CC)CC)c(I)c1 [amiodarone, Amiodarone hydrochloride] | 11 to 12 days | about 1.5% | 
C[C@@H]1C[C@H]2[C@@H]3CCC4=CC(=O)C=C[C@]4(C)[C@@]3(F)[C@@H](O)C[C@]2(C)[C@@]1(O)C(=O)CO [dexamethasone free base, dexamethasone] |  |  | 10 mg/mL (≈ 25.5 mM)

— patent US20060093673A1, “Controlled release of anti-arrhythmic agents” (priority 2003, published 2006)
